In patent US7608716B2, “Pyrazolonaphthyridine derivative” (Aska Pharmaceutical Co., Ltd., priority 2002, dated 2009):

How the values were obtained:
[1] = test system: T1, PDE IV isozymes separated from U937 culture cells; experiment: PDE IV inhibition ([3H]-cAMP hydrolysis); assay type: biochemical; conditions: cAMP 1 μM substrate, 30° C., 20 minutes
T1 construct: PDE IV isozymes as used herein were separated from U937 culture cells by using an anion exchange chromatography
Method: PDE IV isozymes as used herein were separated from U937 culture cells by using an anion exchange chromatography. Type IV PDE isozyme was admixed with ethylene glycol (EG) to adjust the final EG concentration to 30%, then stored at −20° C. and diluted when used. The enzymatic activity for PDE IV was measured using cAMP as a substrate.
Each test compound was dissolved in DMSO to adjust the final concentration to 1% (2.5 μl/tube).
Incubation Buffer Solution (pH7.5):
• Tris-HCl (50 mM), magnesium chloride (6 mM), dithiothreitol (2.5 mM), 5-nucleotidase (4 μg/ml), bovine serum albumin (0.23 mg/ml), and cAMP (1 μM).
A mixture of the aforementioned test compound solution and the buffer solution was incubated at 30° C. for 20 minutes. The reaction was quenched by admixing with 1 ml of anion exchange resin slurry (AG1-X8, 200-400 meshes, chloride form; Bio-Rad) to absorb unreacted substrates. After the reaction stopped, the mixture was centrifuged at 800×g for 10 minutes, and the resulting supernatant was collected with vials in 250 μl aliquots. To each vial was added 5 ml of ACS-II (scintillator, Amersham). The radioactivity was measured with a liquid scintillator counter for [^3H]-adenosine and set as the PDE IV activity.

[2] = test system: actively sensitized guinea pigs; experiment: Inhibition of antigen-induced immediate asthmatic response (airway resistance, Konzett-Rossler); assay type: in vivo, Hartley guinea pigs; conditions: Cavia porcellus, oral, 60 minutes prior to antigen-challenge, reduction of increase in airway resistance, read-out: Inhibition of Asthmatic response ED50: mg/kg orally
Method: Male Hartley outbred guinea pigs were sensitized by administering intraperitoneally physiological saline (0.5 ml) containing ovalbumin (1 mg, antigen) and 5×10^9 inactivated Bordetella pertussis dead cells (adjuvant). Eleven to thirteen days after the first sensitization, 0.05 ml of an ovalbumin solution (1 mg/ml) (ovalbumin is dissolved in physiological saline) was administered to the lateroabdominal region of each guinea pig intracutaneously. An establishment of sensitization was checked relying on cutaneous reaction. Only guinea pigs wherein significant reddening responses occurred 5 to 10 minutes later were employed in the next measurement test for airway resistance.
The guinea pigs (3 animals per group) actively sensitized in the above step (1) were employed to measure for their airway pressure according to Konzett-Rossler method (Arch. Exp. Path. Pharmakol., 195, 71 (1940)).
Thirteen days after the final sensitization, guinea pigs fasted overnight, and were on the next day anesthetized with a pentobarbital solution (30 mg/1.2 ml/kg, dissolved in physiological saline, intraperitoneal administration). After the guinea pigs were fixed in a supine position, their trachea was incised followed by insertion with one port of a 4-port cannula. Among the remaining 3 ports, 2 ports were connected to an artificial respirator (Model 683, Harvard). The animals were ventilated with 10 ml/kg of air per ventilation at a rate of 60 beats/min via the artificial respirator from the cannula. One port remainder was connected to a respiratory amplifier (AR-601G, Nihon Kohden, Japan) via an airflow resistance tube (TV-241T, Nihon Kohden, Japan) and a differential pressure transducer (TP-602T, Nihon Kohden, Japan) connected with a control box (RY-111S, Nihon Kohden, Japan). From a catheter inserted into a left carotid artery, blood pressures were monitored with a blood pressure measurement unit (AP641G, NEC Corp., Japan) via a blood pressure transducer (TP-300T, Nihon Kohden, Japan), and heart rates were recorded on a thermal recorder (WT-685G, Nihon Kohden, Japan), relying on blood pressure pulse waves after being led to a cardiograph unit (AT601G, Nihon Kohden, Japan).
After airway pressure became stable, an ovalbumin solution (1 mg/ml, dissolved in physiological saline) was administered at a dose of 1 ml/kg via a tube with which the right jugular vein of guinea pigs was cannulated.
Each test compound was suspended in 0.5% CMC-Na solution and administered orally with an oral sound at a dose of 0.03 to 20 mg/2 ml/kg 60 minutes prior to the antigen-challenge. Control groups received only 0.5% CMC-Na solution in an equivalent amount. The pentobarbital-anesthetization and tracheal incision were conducted 30 minutes prior to the antigen-challenge.
Each percent reduction of increase in airway resistance (each test compound-administered group versus control group) was calculated according to the equation given below. ED50 was obtained by Probit method.

TNF-α production = experiment: Inhibition of TNF-α production in galactosamine- and LPS-stimulation; assay type: in vivo; conditions: Mus musculus; C3H/HeN mice, oral, 1 hour before galactosamine/LPS i.v.; serum TNF-α by ELISA 1 hour later; read-out: Inhibition of TNF-α production ED50: mg/kg orally
Method: A suspension of each test compound in 0.5% CMC-Na solution was administered orally to C3H/HeN mice at a dose of 0.10 to 10 mg/kg. One hour later, the animals received intravenously galactosamine at a dose of 800 mg/kg and LPS at a dose 5 μg/kg to raise the induction of TNF-α production. One hour later after the galactosamine- and LPS-administration, amounts of TNF-α in serum samples were measured by ELISA, and ED50 was obtained. Roflumilast and SB207499 were used for the reference compounds in this assay.

Row | Compound | IC50 [1] | further results
1 | O=c1c2c(Cc3ccc(O)cc3)n[nH]c2c2cccnc2n1-c1ccccc1 [Example No. 41, 3-(4-hydroxybenzyl)-5-phenyl-1H-pyrazolo[4,3-c][1,8]-naphthyridin-4 (5H)-one] | 0.089 µM | melting point: 316 to 317 °C
2 | Nc1ccc(CCc2n[nH]c3c2c(=O)n(-c2ccccc2)c2ncccc32)cc1 [Example No. 13, 3-[2-(4-aminophenyl)ethyl]-5-phenyl-1H-pyrazolo[4,3-c][1,8]naphthyridin-4 (5H)-one] | 0.031 µM | 
3 | O=c1c2c(CCc3cc[n+]([O-])cc3)n[nH]c2c2cccnc2n1-c1ccccc1 [Example No. 5, 5-phenyl-3-[2-(1-oxypyridin-4-yl)ethyl]-1H-pyrazolo[4,3-c][1,8]-naphthyridin-4 (5H)-one] | 0.067 µM | melting point: 285 °C (dec.)
4 | COc1ccc(C2CNC(=O)C2)cc1OC1CCCC1 (single isomer, unassigned; (-)) [Rolipram, (−)-4-[3-(cyclopentyloxy)-4-methoxyphenyl]-2-pyrrolidinone] |  | ED50 [2]: 0.51 mg/kg
5 | O=C(O)Cc1ccc(Cc2n[nH]c3c2c(=O)n(-c2ccccc2)c2ncccc32)cc1 [Example No. 46, 3-(4-carboxymethylbenzyl)-5-phenyl-1H-pyrazolo[4,3-c][1,8]naphthyridin-4 (5H)-one] | 0.032 µM | melting point: 297 to 300 °C
6 | CCOC(=O)Cc1ccc(Cc2n[nH]c3c2c(=O)n(-c2ccccc2)c2ncccc32)cc1 [Example No. 32, 3-(4-ethoxycarbonylmethylbenzyl)-5-phenyl-1H-pyrazolo[4,3-c][1,8]naphthyridin-4 (5H)-one] | 0.028 µM | 
7 | Nc1ccc(Cc2n[nH]c3c2c(=O)n(-c2ccccc2)c2ncccc32)cc1 [Example No. 43, 3-(4-aminobenzyl)-5-phenyl-1H-pyrazolo[4,3-c][1,8]-naphthyridin-4 (5H)-one] | 0.086 µM | 
8 | COc1ccc(Cc2n[nH]c3c2c(=O)n(-c2ccccc2)c2ncccc32)c(OC)c1 [Example No. 30, 3-(2,4-dimethoxybenzyl)-5-phenyl-1H-pyrazolo[4,3-c][1,8]naphthyridin-4 (5H)-one] | 0.049 µM | 
9 | O=C(O)c1ccc(CCc2n[nH]c3c2c(=O)n(-c2ccccc2)c2ncccc32)cc1 [Example No. 14, 3-[2-(4-carboxyphenyl)ethyl]-5-phenyl-1H-pyrazolo[4,3-c][1,8]naphthyridin-4 (5H)-one] | 0.057 µM | 
10 | N#Cc1cccc(-n2c(=O)c3c(Cc4ccccc4)n[nH]c3c3cccnc32)c1 [Example No. 53, 3-benzyl-5-(3-cyanophenyl)-1H-pyrazolo[4,3-c][1,8]-naphthyridin-4 (5H)-one] | 0.028 µM | 
11 | O=c1c2c(Cc3cccs3)n[nH]c2c2cccnc2n1-c1ccccc1 [Example No. 23, 3-(2-thienylmethyl)-5-phenyl-1H-pyrazolo[4,3-c][1,8]naphthyridin-4 (5H)-one] | 0.082 µM | 
12 | COc1ccc([C@]2(C#N)CC[C@@H](C(=O)O)CC2)cc1OC1CCCC1 [SB207499, cis-4-cyano-4-[3-(cyclopentyloxy)-4-methoxyphenyl]cyclohexane-1-carboxylic acid, reference compound] |  | ED50 (TNF-α production): 3.3 mg/kg; ED50 [2]: > 20 mg/kg
13 | O=c1c2c(Cc3ccccc3)n[nH]c2c2cccnc2n1-c1cccc(F)c1 [Example No. 58, 3-benzyl-5-(3-fluorophenyl)-1H-pyrazolo[4,3-c][1,8]-naphthyridin-4 (5H)-one] | 0.035 µM | 
14 | COc1ccccc1Cc1n[nH]c2c1c(=O)n(-c1ccccc1)c1ncccc21 [Example No. 22, 3-(2-methoxybenzyl)-5-phenyl-1H-pyrazolo[4,3-c][1,8]naphthyridin-4 (5H)-one] | 0.026 µM | 
15 | O=c1c2c(CCc3ccncc3)n[nH]c2c2cccnc2n1-c1cccc([N+](=O)[O-])c1 [Example No. 6, 5-(3-nitrophenyl)-3-[2-(pyridin-4-yl)ethyl]-1H-pyrazolo[4,3-c][1,8]naphthyridin-4 (5H)-one] | 0.025 µM | melting point: 161 to 165 °C
16 | COc1ccc(Cc2n[nH]c3c2c(=O)n(-c2ccccc2)c2ncccc32)cc1 [Example No. 21, 3-(4-methoxybenzyl)-5-phenyl-1H-pyrazolo[4,3-c][1,8]naphthyridin-4 (5H)-one] | 0.088 µM | 
